Columns and labels:
[1] = target: recombinant von Willebrand's Factor (rvWF) (Homo sapiens, UniProt P04275); assay: SPR measurement of binding between ligand-introduced chip and rvWF; details: for Kd: read-out: Dissociation constant KD
Description: That is, by the procedure described below, a ligand (Compound 14) was immobilized on a surface of a glass substrate with a thin gold film deposited thereon, and the binding behavior of Compound 14 with a recombinant von Willebrand's Factor (hereinafter abbreviated to rvWF), which is a heparin binding protein, was observed.
First, a sensor chip (manufactured by Japan Laser Electronics Co., Ltd.), prepared by depositing a gold film of 50 nm thick on a glass substrate of 13 mm×20 mm×0.7 mm, was placed in a UV ozone washer (product name: NL-UV253, Japan Laser Electronics Co., Ltd.), and was exposed to ultraviolet rays for 20 minutes so as to wash the gold surface of the sensor chip with ozone. Subsequently, the sensor chip was mounted on a Teflon™ cell holder in a cell. The cell, to which 50 μL of a methanol solution containing 0.1 mM of Compound 14 was added, was sealed and then gently shaken overnight at room temperature with a Bio Dancer (product name, New Brunswick Scientific Co., Ltd.). Thereafter, the cell was washed six times with 100 μL of methanol, and the sensor chip was removed from the Teflon™ cell holder. The removed sensor chip was then immersed in a Petri dish full of methanol and washed twice by gently shaking the Petri dish. Thereafter, the sensor chip was washed with water and methanol in this order in the same manner as described above, so as to obtain a ligand-introduced chip (ligand carrier). The ligand carrier was air-dried and then mounted on a sensor chip cartridge (glass prism) of a surface plasmon resonance apparatus SPR670 (product name, Japan Laser Electronics Co., Ltd.).
Except that an rvWF solution was used instead of the BSA solution (5-2) injected onto the ligand-introduced chip (obtained in 5-1), the same procedure as in (5-2) was carried out to inject the rvWF solution onto the surface of the ligand-introduced chip. It is to be noted that rvWF was dissolved in the running buffer so as to prepare an rvWF solution with a concentration of 125 nM to 1600 nM.
The rvWF solution was injected onto the surface of the ligand-introduced chip at varying concentrations, and a response (RU; response unit) based on bonding between Compound 14 and rvWF was measured as a function of injection time (sec) of the rvWF solution using the surface plasmon resonance apparatus. […]
In addition, a dissociation constant (KD), a binding rate constant (ka), and a dissociation rate constant (kd) were calculated, using software attached to the surface plasmon resonance apparatus (SPR670), based on a result (FIG. 1) yielded by observing the binding behavior of Compound 14 (ligand) with rvWF.
Then, except that the Compound 25 was used instead of the Compound 14, the procedure in (5-1) of Example 5 was followed to obtain a ligand-introduced chip. […] Thereafter, according the procedure in (5-3) of Example 5, the rvWF solution was injected onto the surface of the ligand-introduced chip, and changes in resonance angle as a function of injection time of the rvWF solution was measured using the surface plasmon resonance apparatus, so as to examine the binding behavior of Compound 25 with rvWF.
In addition, a dissociation constant (KD), a binding rate constant (ka), and a dissociation rate constant (kd) were calculated, based on FIG. 2, according to the procedure in (5-3) of Example 5.

[2] = target: bovine serum albumin (BSA) (Bos taurus, UniProt P02769); assay: SPR examination of nonspecific (hydrophobic) interaction between ligand-introduced chip and protein; format: binding; details: BSA 1 mg/mL in PBS pH 7.4, 60 μL at 15 μL/min, 25° C.
[3] = ligand immobilized on gold sensor chip, rvWF 125 nM to 1600 nM in PBS pH 7.4, 25° C., calculated with SPR670 software

Chain of recombinant von Willebrand's Factor (rvWF) (P04275 23-2813): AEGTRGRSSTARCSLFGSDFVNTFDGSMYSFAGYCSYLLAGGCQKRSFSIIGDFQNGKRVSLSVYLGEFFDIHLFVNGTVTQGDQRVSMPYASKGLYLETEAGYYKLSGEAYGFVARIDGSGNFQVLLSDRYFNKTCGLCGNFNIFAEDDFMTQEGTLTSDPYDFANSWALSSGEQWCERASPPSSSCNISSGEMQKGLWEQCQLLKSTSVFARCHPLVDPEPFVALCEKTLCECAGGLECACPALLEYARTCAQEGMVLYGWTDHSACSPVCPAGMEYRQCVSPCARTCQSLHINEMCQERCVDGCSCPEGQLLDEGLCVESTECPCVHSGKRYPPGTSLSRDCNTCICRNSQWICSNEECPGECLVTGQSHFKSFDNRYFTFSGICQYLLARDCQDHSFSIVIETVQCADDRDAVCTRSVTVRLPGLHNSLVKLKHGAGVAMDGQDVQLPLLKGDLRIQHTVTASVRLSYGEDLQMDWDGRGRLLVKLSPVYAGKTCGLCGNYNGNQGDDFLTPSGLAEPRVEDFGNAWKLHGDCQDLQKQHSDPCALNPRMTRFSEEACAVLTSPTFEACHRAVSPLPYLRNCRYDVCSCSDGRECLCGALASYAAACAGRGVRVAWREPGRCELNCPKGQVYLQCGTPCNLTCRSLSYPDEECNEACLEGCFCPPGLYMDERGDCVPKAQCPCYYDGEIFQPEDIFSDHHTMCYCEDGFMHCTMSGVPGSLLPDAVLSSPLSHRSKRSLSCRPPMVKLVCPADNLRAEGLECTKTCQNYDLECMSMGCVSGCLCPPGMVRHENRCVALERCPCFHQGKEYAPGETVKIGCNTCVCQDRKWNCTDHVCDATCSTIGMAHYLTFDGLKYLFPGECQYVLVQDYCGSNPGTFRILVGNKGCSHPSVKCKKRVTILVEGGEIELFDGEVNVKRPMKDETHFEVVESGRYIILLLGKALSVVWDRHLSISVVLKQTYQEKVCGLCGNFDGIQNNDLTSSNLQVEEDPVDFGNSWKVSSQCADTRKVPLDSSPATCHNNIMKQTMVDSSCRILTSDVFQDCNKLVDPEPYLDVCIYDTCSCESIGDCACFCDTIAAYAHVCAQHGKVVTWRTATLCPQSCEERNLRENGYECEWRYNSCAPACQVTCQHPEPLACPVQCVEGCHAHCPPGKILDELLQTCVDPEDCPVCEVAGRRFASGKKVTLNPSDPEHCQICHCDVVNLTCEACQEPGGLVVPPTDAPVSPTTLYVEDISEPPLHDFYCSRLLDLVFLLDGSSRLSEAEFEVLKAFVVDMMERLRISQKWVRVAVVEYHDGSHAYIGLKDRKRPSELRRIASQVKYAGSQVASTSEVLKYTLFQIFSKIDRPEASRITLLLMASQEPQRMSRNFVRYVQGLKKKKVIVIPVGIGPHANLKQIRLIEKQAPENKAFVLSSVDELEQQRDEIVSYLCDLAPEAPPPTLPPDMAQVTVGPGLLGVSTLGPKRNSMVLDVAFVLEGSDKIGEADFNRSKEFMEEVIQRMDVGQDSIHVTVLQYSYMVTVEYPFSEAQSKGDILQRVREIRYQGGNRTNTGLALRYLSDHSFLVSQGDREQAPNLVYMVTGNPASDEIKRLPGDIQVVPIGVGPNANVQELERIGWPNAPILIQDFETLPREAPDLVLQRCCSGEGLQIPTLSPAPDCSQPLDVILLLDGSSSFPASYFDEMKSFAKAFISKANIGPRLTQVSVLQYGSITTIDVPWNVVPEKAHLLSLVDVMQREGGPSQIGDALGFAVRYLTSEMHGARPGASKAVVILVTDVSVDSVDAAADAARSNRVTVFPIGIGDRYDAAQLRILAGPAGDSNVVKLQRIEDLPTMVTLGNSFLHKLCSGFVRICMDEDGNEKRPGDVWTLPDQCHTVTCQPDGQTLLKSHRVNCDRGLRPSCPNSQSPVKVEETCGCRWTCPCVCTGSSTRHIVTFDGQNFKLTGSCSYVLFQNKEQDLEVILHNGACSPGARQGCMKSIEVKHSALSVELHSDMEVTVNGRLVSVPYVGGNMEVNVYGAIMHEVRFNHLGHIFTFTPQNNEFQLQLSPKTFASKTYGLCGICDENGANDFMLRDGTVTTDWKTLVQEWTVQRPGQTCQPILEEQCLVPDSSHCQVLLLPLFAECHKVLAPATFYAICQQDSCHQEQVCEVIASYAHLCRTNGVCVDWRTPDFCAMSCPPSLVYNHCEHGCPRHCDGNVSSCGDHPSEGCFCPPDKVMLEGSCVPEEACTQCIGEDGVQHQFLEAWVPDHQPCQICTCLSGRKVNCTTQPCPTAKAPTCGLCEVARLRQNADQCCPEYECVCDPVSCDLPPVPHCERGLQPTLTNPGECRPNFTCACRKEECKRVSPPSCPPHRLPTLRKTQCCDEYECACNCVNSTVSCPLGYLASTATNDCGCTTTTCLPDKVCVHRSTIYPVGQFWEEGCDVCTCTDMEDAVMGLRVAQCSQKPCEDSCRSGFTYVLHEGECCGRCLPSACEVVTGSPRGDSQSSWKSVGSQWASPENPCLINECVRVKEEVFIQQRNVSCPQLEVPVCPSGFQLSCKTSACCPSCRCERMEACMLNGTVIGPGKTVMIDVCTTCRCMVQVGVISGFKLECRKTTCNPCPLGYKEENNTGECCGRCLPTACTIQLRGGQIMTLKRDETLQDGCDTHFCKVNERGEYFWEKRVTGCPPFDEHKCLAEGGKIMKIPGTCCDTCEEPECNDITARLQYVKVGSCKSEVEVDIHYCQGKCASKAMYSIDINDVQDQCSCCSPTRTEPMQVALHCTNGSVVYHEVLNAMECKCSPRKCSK
Chain of bovine serum albumin (BSA) (P02769 25-607): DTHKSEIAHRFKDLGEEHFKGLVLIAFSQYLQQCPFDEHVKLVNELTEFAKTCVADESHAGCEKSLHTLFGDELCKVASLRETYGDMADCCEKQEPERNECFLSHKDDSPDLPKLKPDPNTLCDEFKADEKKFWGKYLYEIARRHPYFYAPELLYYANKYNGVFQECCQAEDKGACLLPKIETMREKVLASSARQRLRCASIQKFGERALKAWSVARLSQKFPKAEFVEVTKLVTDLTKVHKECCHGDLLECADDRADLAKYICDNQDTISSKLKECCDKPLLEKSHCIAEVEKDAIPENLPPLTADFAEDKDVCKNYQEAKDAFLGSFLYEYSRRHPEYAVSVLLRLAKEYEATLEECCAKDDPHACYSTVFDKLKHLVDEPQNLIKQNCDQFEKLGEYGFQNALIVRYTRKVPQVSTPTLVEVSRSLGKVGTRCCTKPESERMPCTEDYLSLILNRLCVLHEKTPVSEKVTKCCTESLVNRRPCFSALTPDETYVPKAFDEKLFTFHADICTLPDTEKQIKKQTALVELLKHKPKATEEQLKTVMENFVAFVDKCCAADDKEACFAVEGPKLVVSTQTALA

Row | kon ([1]; ligand immobilized on gold sensor chip, rvWF 125 nM to 1600 nM in PBS pH 7.4, 25° C., calculated with SPR670 software, read-out: Binding rate constant ka) | Kd [1, 3] | koff ([1]; ligand immobilized on gold sensor chip, rvWF 125 nM to 1600 nM in PBS pH 7.4, 25° C., calculated with SPR670 software, read-out: Dissociation rate constant kd) | Nonspecific interaction based on hydrophobic interaction (resonant angle change) [2] | Affinity for rvWF compared with ligand-introduced chip using Compound 25 ([1]; comparison from Table 1) | Compound
1 | 8380 M⁻¹ s⁻¹ | 2600 nM | 0.0219 s⁻¹ | no nonspecific interaction | – | COC1C(COS(=O)(=O)O)OC(OC2C(C(=O)O)OC(OCC(O)C(O)C(O)C(O)CNc3cccc(NC(=O)CCCCC4CCSS4)c3)C(OS(=O)(=O)O)C2O)C(NS(=O)(=O)O)C1O (stereo not shown) [Compound 25]
2 | – | 1200 nM | – | almost no resonant angle change | higher affinity for rvWF | COC1C(COS(=O)(=O)O)OC(OC2C(C(=O)O)OC(OCC(O)C(O)C(O)C(O)CNc3cccc(NC(=O)CCC(CCC(=O)Nc4cccc(NCC(O)C(O)C(O)C(O)COC5OC(C(=O)O)C(OC6OC(COS(=O)(=O)O)C(OC)C(O)C6NS(=O)(=O)O)C(O)C5OS(=O)(=O)O)c4)(CCC(=O)Nc4cccc(NCC(O)C(O)C(O)C(O)COC5OC(C(=O)O)C(OC6OC(COS(=O)(=O)O)C(OC)C(O)C6NS(=O)(=O)O)C(O)C5OS(=O)(=O)O)c4)NC(=O)CNC(=O)CCCCC4CCSS4)c3)C(OS(=O)(=O)O)C2O)C(NS(=O)(=O)O)C1O (stereo not shown) [Compound 14]
